According to ChEMBL document CHEMBL1135030, “Antitumor agents. Part 212. Bucidarasins A-C, three new cytotoxic clerodane diterpenes from Bucida buceras” (Bioorg Med Chem Lett, 2002):
pIC50: −log10 of the molar value.

Legend:
A549 [1] = test: In vitro cytotoxicity against parental and drug resistant lung human tumor cell line A549; format: functional, cell-based
CAKI-1 [2] = test: In vitro cytotoxicity against parental and drug resistant kidney human tumor cell line CAKI; format: functional, cell-based
HCT-8 [3] = test: In vitro cytotoxicity against parental and drug resistant ileococal human tumor cell line HCT-8; format: functional, cell-based
HOS [4] = test: In vitro cytotoxicity against parental and drug resistant bone human tumor cell line HOS; format: functional, cell-based
SK-MEL-2 [5] = test: In vitro cytotoxicity against parental and drug resistant melanoma human tumor cell line SK-MEL-2; format: functional, cell-based
KB [6] = test: In vitro cytotoxicity against parental and drug resistant etoposide resistant human tumor cell line KB-7d; format: functional, cell-based
1A9 [7] = test: In vitro cytotoxicity against parental and drug resistant ovarian human tumor cell line IA9; format: functional, cell-based
KB [8] = test: In vitro cytotoxicity against parental and drug resistant camptothecin resistant human tumor cell line KB-CPT; format: functional, cell-based
KB [9] = test: In vitro cytotoxicity against parental and drug resistant vincristine resistant human tumor cell line KB-VIN; format: functional, cell-based
KB [10] = test: In vitro cytotoxicity against parental and drug resistant nasopharyngeal human tumor cell line KB; format: functional, cell-based
MCF7 [11] = test: In vitro cytotoxicity against parental and drug resistant breast human tumor cell line MCF-7; format: functional, cell-based
U-87 MG [12] = test: In vitro cytotoxicity against parental and drug resistant glioblastoma human tumor cell line U87MG; format: functional, cell-based, U-87MG ATCC
1A9/ptx-10 [13] = test: In vitro cytotoxicity against parental and drug resistant paclitaxel human tumor cell line IA9-PTX10; format: functional, cell-based
A549 [14] = test: Percentage inhibition against parental and drug resistant lung human tumor cell line A549 at 10 uM; format: functional
CAKI-1 [15] = test: In vitro cytotoxicity against parental and drug resistant kidney human tumor cell line CAKI; Not active at 10 uM; format: functional, cell-based
HCT-8 [16] = test: In vitro cytotoxicity against parental and drug resistant ileococal human tumor cell line HCT-8; Not active at 10 uM; format: functional, cell-based
HOS [17] = test: In vitro cytotoxicity against parental and drug resistant bone human tumor cell line HOS; Not active at 10 uM; format: functional, cell-based
SK-MEL-2 [18] = test: Percentage inhibition against parental and drug resistant melanoma human tumor cell line SK-MEL-2 at 10 uM; format: functional
KB [19] = test: Percentage inhibition against parental and drug resistant nasopharyngeal human tumor cell line KB at 10 uM; format: functional
1A9/ptx-10 [20] = test: In vitro cytotoxicity against parental and drug resistant paclitaxel human tumor cell line IA9-PTX10; Not active at 10 uM; format: functional, cell-based
1A9 [21] = test: In vitro cytotoxicity against parental and drug resistant ovarian human tumor cell line IA9; Not active at 10 uM; format: functional, cell-based
KB [22] = test: In vitro cytotoxicity against parental and drug resistant camptothecin resistant human tumor cell line KB-CPT; Not active at 10 uM; format: functional, cell-based
KB [23] = test: Tested for cytotoxicity against parental and drug resistant etoposide resistant human tumor cell line KB-7d; format: functional, cell-based
KB [24] = test: Percentage inhibition against parental and drug resistant etoposide resistant human tumor cell line KB-7d at 10 uM; format: functional
KB [25] = test: Percentage inhibition against parental and drug resistant vincristine resistant human tumor cell line KB-VIN at 10 uM; format: functional
MCF7 [26] = test: In vitro cytotoxicity against parental and drug resistant breast human tumor cell line MCF-7 at 10 uM; format: functional
U-87 MG [27] = test: In vitro cytotoxicity against parental and drug resistant glioblastoma human tumor cell line U87MG; Not active at 10 uM; format: functional, cell-based; details: u-87mg atcc

Compound	pIC50 (A549 [1])	pIC50 (CAKI-1 [2])	pIC50 (HCT-8 [3])	pIC50 (HOS [4])	pIC50 (SK-MEL-2 [5])	pIC50 (KB [6])	pIC50 (1A9 [7])	pIC50 (KB [8])	pIC50 (KB [9])	pIC50 (KB [10])	pIC50 (MCF7 [11])	pIC50 (U-87 MG [12])	pIC50 (1A9/ptx-10 [13])	other results
C=C/C(C)=C/C[C@@]1(C)[C@@H](C)C[C@@H](O)C23C(=C[C@@H](OC(=O)C(C)C)C[C@@H]21)[C@H](OC(C)=O)O[C@@H]3OC(C)=O (stereo partly drawn)	6.30	5.96	6.05	6.10	6.15	6.10	6.30	6.10	5.96	6.05	6.05	6.00	6.30	
C=C/C(C)=C/C[C@@]1(C)[C@@H](C)CC[C@]2(COC(C)=O)C(COC(C)=O)=CC(=O)C[C@@H]21	< 5.00				< 5.00				< 5.00	< 5.00	< 5.00			inhibition at 10 µM (A549 [14]): 6%; IC50 (CAKI-1 [15]): Not Active; IC50 (HCT-8 [16]): Not Active; IC50 (HOS [17]): Not Active; inhibition at 10 µM (SK-MEL-2 [18]): 7%; inhibition at 10 µM (KB [19]): 7%; IC50 (1A9/ptx-10 [20]): Not Active; IC50 (1A9 [21]): Not Active; IC50 (KB [22]): Not Active; pIC50 (KB [23]): < 5.00; inhibition at 10 µM (KB [24]): 23%; inhibition at 10 µM (KB [25]): 22%; inhibition at 10 µM (MCF7 [26]): 12%; IC50 (U-87 MG [27]): Not Active
C=C/C(C)=C/C[C@@]1(C)[C@@H](C)CCC23C(=C[C@@H](OC(=O)C(C)C)C[C@@H]21)[C@H](OC(C)=O)O[C@@H]3OC(C)=O (stereo partly drawn)	5.96	5.74	6.00	6.05	6.00	6.05	6.22	6.05	6.00	6.05	5.96	5.92	6.30	
C=C/C(C)=C/C[C@]1(C)[C@H]2C[C@H](OC(=O)C(C)CC)C=C3[C@H](OC(C)=O)O[C@H](OC(C)=O)[C@@]32[C@H](O)C[C@@H]1C (stereo partly drawn) [CASEARLUCIN A]	5.96	5.72	5.89	5.92	6.00	5.96	6.00	5.96	5.92	5.96	5.74	5.85	5.96	
